In ChEMBL document CHEMBL5465560, “Selectivity Literature for EUbOPEN Chemogenomic Library” (2024):

Legend:
[1] = molecular target: T1, Histone-lysine N-methyltransferase NSD3 (Homo sapiens) (UniProt Q9BZ95); assay: Selectivity interaction (Transferase panel (protein, RNA, and DNA methyltransferases. and EP300 (acetyltransferase))) EUB0000270b NSD3
T1 sequence (whole entry): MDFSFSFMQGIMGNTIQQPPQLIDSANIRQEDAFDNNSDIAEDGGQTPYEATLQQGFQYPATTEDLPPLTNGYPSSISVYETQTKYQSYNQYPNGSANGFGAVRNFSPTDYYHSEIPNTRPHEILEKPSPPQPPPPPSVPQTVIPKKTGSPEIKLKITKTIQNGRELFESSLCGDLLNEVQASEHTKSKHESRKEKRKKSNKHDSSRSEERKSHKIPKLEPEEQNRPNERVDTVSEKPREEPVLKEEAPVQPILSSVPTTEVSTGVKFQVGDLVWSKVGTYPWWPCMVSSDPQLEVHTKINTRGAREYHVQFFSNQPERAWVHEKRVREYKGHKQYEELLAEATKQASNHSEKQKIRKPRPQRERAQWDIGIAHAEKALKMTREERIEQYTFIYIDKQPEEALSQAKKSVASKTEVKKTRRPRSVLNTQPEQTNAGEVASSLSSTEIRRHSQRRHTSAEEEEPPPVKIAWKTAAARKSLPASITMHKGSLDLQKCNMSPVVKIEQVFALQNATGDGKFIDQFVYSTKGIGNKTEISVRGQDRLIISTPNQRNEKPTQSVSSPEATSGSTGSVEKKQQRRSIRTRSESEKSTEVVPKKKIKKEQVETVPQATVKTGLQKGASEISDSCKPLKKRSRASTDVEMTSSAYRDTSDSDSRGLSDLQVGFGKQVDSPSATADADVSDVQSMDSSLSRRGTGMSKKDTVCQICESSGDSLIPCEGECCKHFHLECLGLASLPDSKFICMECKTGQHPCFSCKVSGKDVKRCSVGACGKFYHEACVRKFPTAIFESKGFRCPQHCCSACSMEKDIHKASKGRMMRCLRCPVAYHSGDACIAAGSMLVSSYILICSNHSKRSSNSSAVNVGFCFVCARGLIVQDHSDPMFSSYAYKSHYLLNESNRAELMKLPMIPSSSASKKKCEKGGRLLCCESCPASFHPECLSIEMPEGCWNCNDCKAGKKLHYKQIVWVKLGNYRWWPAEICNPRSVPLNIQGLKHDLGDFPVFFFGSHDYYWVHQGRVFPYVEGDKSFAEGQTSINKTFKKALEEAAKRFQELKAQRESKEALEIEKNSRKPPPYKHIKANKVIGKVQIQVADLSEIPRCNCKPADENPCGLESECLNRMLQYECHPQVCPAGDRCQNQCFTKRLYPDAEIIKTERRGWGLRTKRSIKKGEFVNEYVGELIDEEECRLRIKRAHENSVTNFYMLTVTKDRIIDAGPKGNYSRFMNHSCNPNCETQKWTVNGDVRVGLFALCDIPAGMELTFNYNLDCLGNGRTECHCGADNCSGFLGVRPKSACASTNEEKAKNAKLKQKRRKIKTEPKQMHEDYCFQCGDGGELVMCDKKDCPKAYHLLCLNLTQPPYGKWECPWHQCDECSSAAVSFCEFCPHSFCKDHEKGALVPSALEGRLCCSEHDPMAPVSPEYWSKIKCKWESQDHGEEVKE

[2] = molecular target: Ribosomal protein S6 kinase alpha-1 (Homo sapiens, UniProt Q15418); assay: Selectivity interaction (ActivX KiNativ screen (kinase selectivity in THP-1 cell lysates)) EUB0000639a RPS6KA1; format: subcellular; settings: lysate, at 0.04 µM
Chain of Ribosomal protein S6 kinase alpha-1 (Q15418 whole entry): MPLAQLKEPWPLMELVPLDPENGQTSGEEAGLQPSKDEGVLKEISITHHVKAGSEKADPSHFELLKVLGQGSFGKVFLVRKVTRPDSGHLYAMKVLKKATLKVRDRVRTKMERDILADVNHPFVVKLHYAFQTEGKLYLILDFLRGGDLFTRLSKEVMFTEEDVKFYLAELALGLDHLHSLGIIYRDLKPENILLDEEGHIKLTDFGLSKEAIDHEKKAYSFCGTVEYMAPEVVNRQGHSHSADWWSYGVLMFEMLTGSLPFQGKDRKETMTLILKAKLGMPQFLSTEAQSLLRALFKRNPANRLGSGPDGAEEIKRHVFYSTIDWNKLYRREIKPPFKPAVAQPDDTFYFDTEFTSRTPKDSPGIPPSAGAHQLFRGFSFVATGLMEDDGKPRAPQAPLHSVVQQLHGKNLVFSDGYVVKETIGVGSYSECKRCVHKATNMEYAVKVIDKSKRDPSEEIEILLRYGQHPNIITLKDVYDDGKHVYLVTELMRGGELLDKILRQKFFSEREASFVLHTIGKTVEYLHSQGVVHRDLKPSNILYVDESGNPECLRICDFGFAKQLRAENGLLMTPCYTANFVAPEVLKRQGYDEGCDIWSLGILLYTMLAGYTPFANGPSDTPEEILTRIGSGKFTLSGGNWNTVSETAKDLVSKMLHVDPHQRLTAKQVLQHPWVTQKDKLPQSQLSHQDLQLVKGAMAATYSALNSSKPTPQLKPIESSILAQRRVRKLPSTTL

[3] = molecular target: Cyclin-dependent kinase-like 3 (Homo sapiens) (UniProt Q8IVW4); assay: Selectivity interaction (Ambit KINOMEscan and KiNATiv profiling in Jurkat cells) EUB0000090b CDKL3; format: cell-based; settings: at 1 µM
Chain of Cyclin-dependent kinase-like 3 (Homo sapiens) (Q8IVW4 whole entry, looked up): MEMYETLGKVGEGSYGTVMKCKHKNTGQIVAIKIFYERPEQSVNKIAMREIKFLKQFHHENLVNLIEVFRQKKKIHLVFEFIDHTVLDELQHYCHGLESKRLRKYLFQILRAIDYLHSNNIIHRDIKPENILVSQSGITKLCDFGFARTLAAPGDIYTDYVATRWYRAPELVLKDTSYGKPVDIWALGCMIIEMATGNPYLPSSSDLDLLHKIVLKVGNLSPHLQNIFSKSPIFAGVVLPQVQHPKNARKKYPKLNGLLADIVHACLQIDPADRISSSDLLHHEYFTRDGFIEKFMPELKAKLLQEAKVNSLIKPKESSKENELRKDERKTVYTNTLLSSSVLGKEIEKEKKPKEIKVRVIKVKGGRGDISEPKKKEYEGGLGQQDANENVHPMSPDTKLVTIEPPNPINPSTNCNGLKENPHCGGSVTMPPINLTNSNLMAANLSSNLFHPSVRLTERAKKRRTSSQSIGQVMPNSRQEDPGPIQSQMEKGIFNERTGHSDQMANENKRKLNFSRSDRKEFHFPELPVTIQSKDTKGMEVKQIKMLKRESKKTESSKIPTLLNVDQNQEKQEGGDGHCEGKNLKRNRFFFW

[4] = molecular target: T2, Membrane-associated tyrosine- and threonine-specific cdc2-inhibitory kinase (Homo sapiens) (UniProt Q99640); settings: at 10 µM
T2 sequence (whole entry): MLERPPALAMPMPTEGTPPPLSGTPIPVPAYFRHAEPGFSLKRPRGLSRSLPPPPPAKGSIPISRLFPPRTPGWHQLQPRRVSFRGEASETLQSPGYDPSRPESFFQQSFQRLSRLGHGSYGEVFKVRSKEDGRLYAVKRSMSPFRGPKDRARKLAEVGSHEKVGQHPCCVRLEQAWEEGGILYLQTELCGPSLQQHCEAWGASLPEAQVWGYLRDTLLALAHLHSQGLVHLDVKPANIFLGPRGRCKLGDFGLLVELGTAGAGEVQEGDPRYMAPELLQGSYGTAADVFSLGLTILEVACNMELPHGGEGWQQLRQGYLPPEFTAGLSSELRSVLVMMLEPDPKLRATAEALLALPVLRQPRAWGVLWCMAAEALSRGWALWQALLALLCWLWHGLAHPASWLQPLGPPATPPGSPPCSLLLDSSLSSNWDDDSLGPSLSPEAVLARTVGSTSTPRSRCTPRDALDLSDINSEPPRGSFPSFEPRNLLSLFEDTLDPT

[5] = molecular target: T3, Serine/threonine-protein kinase ICK (Homo sapiens) (UniProt Q9UPZ9); assay: Selectivity interaction (KinomeScan (DiscoverX)) EUB0001619a ICK; settings: at 1 µM
T3 sequence (whole entry): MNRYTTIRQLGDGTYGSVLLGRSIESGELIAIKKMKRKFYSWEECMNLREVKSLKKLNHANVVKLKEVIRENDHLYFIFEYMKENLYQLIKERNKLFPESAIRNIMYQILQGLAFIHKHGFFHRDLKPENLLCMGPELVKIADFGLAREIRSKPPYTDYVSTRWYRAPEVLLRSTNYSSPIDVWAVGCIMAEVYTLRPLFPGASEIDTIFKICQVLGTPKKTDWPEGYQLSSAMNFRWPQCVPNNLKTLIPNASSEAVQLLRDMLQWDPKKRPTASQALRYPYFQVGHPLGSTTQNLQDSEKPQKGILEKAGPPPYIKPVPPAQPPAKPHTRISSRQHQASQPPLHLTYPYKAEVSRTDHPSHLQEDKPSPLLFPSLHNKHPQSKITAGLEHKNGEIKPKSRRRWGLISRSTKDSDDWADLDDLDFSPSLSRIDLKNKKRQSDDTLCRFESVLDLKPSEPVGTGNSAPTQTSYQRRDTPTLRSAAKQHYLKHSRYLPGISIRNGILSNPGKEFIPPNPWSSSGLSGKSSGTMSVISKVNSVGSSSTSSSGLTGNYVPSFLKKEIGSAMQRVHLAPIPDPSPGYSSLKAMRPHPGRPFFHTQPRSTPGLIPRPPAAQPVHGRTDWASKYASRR

[6] = molecular target: Myosin light chain kinase, smooth muscle (Homo sapiens, UniProt Q15746); assay: Selectivity interaction (KinomeScan (DiscoverX)) EUB0000695a MYLK; settings: at 100 nM
Chain of Myosin light chain kinase, smooth muscle (Q15746 whole entry): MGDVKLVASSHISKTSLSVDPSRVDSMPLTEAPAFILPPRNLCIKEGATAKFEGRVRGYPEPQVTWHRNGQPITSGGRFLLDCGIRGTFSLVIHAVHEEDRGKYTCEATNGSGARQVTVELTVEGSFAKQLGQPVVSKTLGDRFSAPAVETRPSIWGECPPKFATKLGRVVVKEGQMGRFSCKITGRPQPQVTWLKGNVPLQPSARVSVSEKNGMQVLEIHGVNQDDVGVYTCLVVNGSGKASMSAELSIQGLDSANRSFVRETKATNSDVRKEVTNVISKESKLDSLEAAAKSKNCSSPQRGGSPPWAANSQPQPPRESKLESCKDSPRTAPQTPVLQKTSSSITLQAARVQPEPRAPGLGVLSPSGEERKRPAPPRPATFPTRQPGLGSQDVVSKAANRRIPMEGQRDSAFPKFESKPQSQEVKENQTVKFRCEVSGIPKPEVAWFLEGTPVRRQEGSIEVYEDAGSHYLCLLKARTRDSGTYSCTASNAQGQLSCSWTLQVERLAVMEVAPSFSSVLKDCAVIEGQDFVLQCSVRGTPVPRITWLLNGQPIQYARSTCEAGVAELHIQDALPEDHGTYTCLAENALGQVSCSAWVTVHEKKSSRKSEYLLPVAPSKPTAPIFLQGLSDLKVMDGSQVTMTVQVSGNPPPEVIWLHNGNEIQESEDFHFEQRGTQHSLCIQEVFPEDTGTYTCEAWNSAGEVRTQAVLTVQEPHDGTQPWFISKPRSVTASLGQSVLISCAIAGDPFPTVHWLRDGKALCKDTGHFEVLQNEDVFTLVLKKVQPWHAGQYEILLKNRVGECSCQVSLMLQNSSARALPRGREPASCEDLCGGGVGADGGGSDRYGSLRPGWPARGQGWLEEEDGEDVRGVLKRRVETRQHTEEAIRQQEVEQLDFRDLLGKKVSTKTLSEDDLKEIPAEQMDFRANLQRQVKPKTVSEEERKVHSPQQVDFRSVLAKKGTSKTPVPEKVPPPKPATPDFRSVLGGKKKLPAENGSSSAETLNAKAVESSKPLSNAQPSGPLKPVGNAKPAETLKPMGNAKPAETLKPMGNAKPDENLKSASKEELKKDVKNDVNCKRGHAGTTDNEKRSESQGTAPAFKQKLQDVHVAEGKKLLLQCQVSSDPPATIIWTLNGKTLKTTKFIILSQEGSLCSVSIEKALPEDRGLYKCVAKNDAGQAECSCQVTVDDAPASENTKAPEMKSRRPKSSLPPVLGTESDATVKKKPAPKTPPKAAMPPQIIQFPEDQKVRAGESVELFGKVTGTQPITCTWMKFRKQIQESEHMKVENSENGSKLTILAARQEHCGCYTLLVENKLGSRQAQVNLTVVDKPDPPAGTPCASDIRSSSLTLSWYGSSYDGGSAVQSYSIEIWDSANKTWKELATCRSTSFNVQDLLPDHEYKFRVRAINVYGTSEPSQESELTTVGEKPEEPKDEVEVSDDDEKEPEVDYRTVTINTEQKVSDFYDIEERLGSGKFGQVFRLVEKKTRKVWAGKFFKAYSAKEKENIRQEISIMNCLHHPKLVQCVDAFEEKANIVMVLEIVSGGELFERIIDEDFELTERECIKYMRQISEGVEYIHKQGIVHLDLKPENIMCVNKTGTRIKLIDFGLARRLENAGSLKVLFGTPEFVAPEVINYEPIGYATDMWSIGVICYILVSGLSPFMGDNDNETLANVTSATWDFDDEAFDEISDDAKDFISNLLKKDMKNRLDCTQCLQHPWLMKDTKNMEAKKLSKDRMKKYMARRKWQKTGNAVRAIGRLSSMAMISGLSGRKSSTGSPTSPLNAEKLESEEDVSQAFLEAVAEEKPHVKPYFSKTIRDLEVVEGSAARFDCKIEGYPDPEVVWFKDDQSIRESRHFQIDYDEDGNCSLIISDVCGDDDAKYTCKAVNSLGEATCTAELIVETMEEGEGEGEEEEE

[7] = molecular target: MAP kinase-interacting serine/threonine-protein kinase 1 (Homo sapiens) (UniProt Q9BUB5); assay: Selectivity interaction (KinomeScan (DiscoverX)) EUB0000607a MKNK1; settings: at 10 µM
Chain of MAP kinase-interacting serine/threonine-protein kinase 1 (Homo sapiens) (Q9BUB5 whole entry, looked up): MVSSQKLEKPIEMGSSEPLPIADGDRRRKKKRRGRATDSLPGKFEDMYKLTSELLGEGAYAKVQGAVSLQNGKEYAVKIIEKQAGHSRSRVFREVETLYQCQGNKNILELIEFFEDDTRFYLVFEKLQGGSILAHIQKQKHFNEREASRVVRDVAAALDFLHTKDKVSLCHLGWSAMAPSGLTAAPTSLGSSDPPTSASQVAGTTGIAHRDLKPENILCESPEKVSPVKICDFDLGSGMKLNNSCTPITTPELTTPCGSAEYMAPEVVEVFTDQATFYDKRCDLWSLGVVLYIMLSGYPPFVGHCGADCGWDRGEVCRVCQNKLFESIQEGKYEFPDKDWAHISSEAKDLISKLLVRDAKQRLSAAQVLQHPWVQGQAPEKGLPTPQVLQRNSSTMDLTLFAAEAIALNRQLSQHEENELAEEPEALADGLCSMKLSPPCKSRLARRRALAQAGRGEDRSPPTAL

In the case of `Cc1cc(CN)cc(C)c1-c1ncn(C)c1-c1cncn1C`, the % activity ([1]; at 1 µM) is reported as > 90% and the % activity ([1]; at 10 µM) is reported as > 80%.

Molecule `CC[C@@H]1[C@H](F)C(=O)N[C@@H]1COc1nccc2cc(C(N)=O)c(OC)cc12` [ZIMLOVISERTIB] has a % of inhibition [2] of 12.4%.

`CN(C)C/C=C/C(=O)Nc1ccc(C(=O)N2CCCC(Nc3ncc(Cl)c(-c4c[nH]c5ccccc45)n3)C2)cc1` (stereo not drawn) showed a % of control [3] of 100%.

Work on `Cc1cc([C@@H](C)Nc2ccccc2C(=O)O)c2nc(N3CCOCC3)cc(=O)n2c1` [AZD-6482] yielded a % of control [4] of 100%.

For `N#Cc1cccc(-c2c[nH]c3ncnc(N4CCOCC4)c23)c1`, the % of control [5] was 96%.

Molecule `Cc1cc(F)c(C(=O)Nc2cccc(-c3nncn3C(C)C)n2)cc1-n1cnc(C2CC2)c1` has a % of control [6] of 100%.

`CNC(=O)Nc1ccc(-c2nc(N3CC4CCC(C3)O4)c3cnn(C4CCC5(CC4)OCCO5)c3n2)cc1` showed a % of control [7] of 100%.
